Measurements as given in patent publication US20240059747A1, “UBIQUITIN VARIANT WITH HIGH AFFINITY FOR BINDING 53BP1 REDUCES THE AMOUNT OF AAV NEEDED TO ACHIEVE HIGH RATES OF HDR” (Integrated DNA Technologies, Inc., priority 2022, published 2024).

What was measured:
[1] = system: HEK293 cells; experiment: percent HDR by EcoR1 cleavage assay, Cas9 RNP nucleofection with AAV donor, HEK293 cells; type: cell-based; conditions: for dose dependence of HDR benefit: AAV donor at MOI 20,000, doses up to 200 μM
Protocol: FIG. 1C depicts an exemplary heatmap showing the percent HDR at SERPINC1 in K562 cells with and without 50 uM CM1tf. […] The heatmaps show the percent HDR measured by EcoR1 cleavage assay with and without the use of CM1tf. Cas9 RNP (2 μM) was delivered with and without CM1tf into cells by Lonza nucleofection using 4 μM Alt-R Cas9 Electroporation Enhancer. AAV donor containing an EcoR1 cut site insert with 500 bp homology arms was added at a range of multiplicity of infection (MOIs) to cells for 24 hours following RNP delivery.
FIG. 2B depicts an exemplary heatmap showing the percent HDR at SERPINC1 in HEK293 cells with no enhancer, CM1tf, V2, or CM1tf+V2. […] Cas9 RNP was co-delivered with and without CM1tf into cells by Lonza nucleofection with 2 μM Cas9 RNP, 4 μM Alt-R Cas9 Electroporation Enhancer, and 0 or 25 uM CM1tf. AAV donor containing an EcoR1 cut site insert with 500 bp homology arms was added at a range of MOIs to cells for 24 hours following RNP delivery. V2 enhancer was added to media at a 1 uM final concentration for 24 hours following nucleofection.
The heatmaps show the percent HDR at STAT3 measured by EcoR1 cleavage assay with or without CM1tf. Cas9 RNP was co-delivered with and without CM1tf into cells by Lonza nucleofection with 2 μM Cas9 RNP, 4 μM Alt-R Cas9 Electroporation Enhancer, and 0 or 25 uM CM1tf. AAV donor containing 500 base pair (bp), 300 bp, or 100 bp homology arms was added at a range of MOIs to cells for 24 hours following RNP delivery.
Cas9 RNP was co-delivered with and without CM1tf into cells by Lonza nucleofection with 2 μM Cas9 RNP, 4 μM Alt-R Cas9 Electroporation Enhancer, and range of CM1tf concentrations from 200 μM to 6.25 μM. AAV donor containing an EcoR1 cut site insert with 500 bp homology arms was added at an MOI of 20,000 to cells for 24 hours following RNP delivery.
We developed at tag-free version of CM1 (CM1tf) and tested its ability to enhance HDR in cell lines using AAV donor (see Table 1). AAV-DJ, a synthetic AAV serotype most closely related to AAV-2 that is a chimera of type 2/type 8/ and type 9, was chosen for testing due to its high transduction efficiency in vitro for a broad range of cell types. The dose of CM1tf was held constant while a range of MOIs was used for the AAV donor. The AAV donor was constructed such that a 6 base pair insert consisting of an EcoR1 cut site (GAATTC) was flanked by 500 base pairs of homology arm matching the genomic sequence on either side of the target cut site. Briefly, Cas9 V3 protein (IDT) and Alt-R sgRNA (IDT) were mixed at a 1:1.2 ratio, incubated for 10 min, then Alt-R Cas9 electroporation enhancer (EE) (IDT), 1× PBS (Gibco), and CM1tf, diluted in 1× PBS, were added. HEK293 or K562 cells were washed and resuspended in SF buffer for Lonza Nucleofection and added to the RNP+DNA mix such that the final concentration of Cas9 RNP was 2 μM, EE was 4 μM, and CM1tf was 25 μM (HEK293 cells) or 50 μM (K562 cells). Cells plus RNP+DNA were electroporated using program DS-150 (HEK293 cells) or FF-120 (K562 cells) using the Lonza nucleofector system. Cells were then plated in 96 well plates at 20,000 cells/well and AAV was added to the wells at a range of MOI from 0 (no virus) to 160,000, with MOI being calculated as viral genomes (vg) per cell with vg calculated using qPCR. Cells were recovered and plated with serum free media, AAV was added, then serum containing media was added after four hours. Genomic DNA was isolated 48 hours after RNP delivery using QuickExtract (Lucigen).
In order to optimize HDR, it is often desirable to use a combination of HDR enhancers that work by different mechanisms to further boost HDR rates beyond what can be achieved by any single enhancer alone.

[2] = system: K562 cells; experiment: percent HDR by EcoR1 cleavage assay, Cas9 RNP nucleofection with AAV donor, K562 cells; type: cell-based; conditions: 50 μM CM1tf, SERPINC1, AAV donor MOI range, FIG. 1C
Protocol: FIG. 1C depicts an exemplary heatmap showing the percent HDR at SERPINC1 in K562 cells with and without 50 uM CM1tf. In FIG. 1A-C, the ubiquitin variant CM1tf boosts HDR when delivered with Cas9 RNP when an AAV vector is used to deliver the donor template. The heatmaps show the percent HDR measured by EcoR1 cleavage assay with and without the use of CM1tf. Cas9 RNP (2 μM) was delivered with and without CM1tf into cells by Lonza nucleofection using 4 μM Alt-R Cas9 Electroporation Enhancer. AAV donor containing an EcoR1 cut site insert with 500 bp homology arms was added at a range of multiplicity of infection (MOIs) to cells for 24 hours following RNP delivery.
We developed at tag-free version of CM1 (CM1tf) and tested its ability to enhance HDR in cell lines using AAV donor (see Table 1). AAV-DJ, a synthetic AAV serotype most closely related to AAV-2 that is a chimera of type 2/type 8/ and type 9, was chosen for testing due to its high transduction efficiency in vitro for a broad range of cell types. The dose of CM1tf was held constant while a range of MOIs was used for the AAV donor. […] Cells were then plated in 96 well plates at 20,000 cells/well and AAV was added to the wells at a range of MOI from 0 (no virus) to 160,000, with MOI being calculated as viral genomes (vg) per cell with vg calculated using qPCR. […]

[3] = system: HDR; conditions: ssDNA donor; previous testing; cited from earlier work
[4] = system: HDR; conditions: plasmid, AAV mediated gene delivery or mRNA delivery; double-stranded and single-stranded DNA donors; cited from earlier work
[5] = system: 53BP1 foci; conditions: introduced into cells; cited from earlier work

CM1tf: tag-free version of ubiquitin variant CM1, SEQ ID NO: 3; K6R, T7M, T12M, T14E, K33H, A46Q, S65P, L67K, H68M relative to i53
improvement in HDR rates, single enhancers and combination ([1]; 25 uM CM1tf, 1 μM V2 enhancer in media for 24 hours, AAV donor MOI range, HPRT1 and SERPINC1, FIG. 2): approximately equivalent improvement in HDR rates
boost of HDR rates ([1]; 25 μM CM1tf, AAV-DJ donor with 500 bp homology arms, MOI 0 to 160,000, HPRT1 and SERPINC1, FIG. 1A-B): dramatically boosted HDR rates
HDR boost compared with i53 ([1]; AAV donor at MOI 20,000, doses 6.25 to 200 μM, FIG. 4): continued to outperform i53
dose dependence of HDR benefit ([1]; FIG. 4): slightly larger benefit to HDR with increasing dose
less AAV needed to achieve the same level of editing as without enhancer ([1]; HEK293 cells, 25 μM CM1tf, AAV donor MOI range): approximately four-fold
boost of HDR [2]: boosts HDR

i53: ubiquitin variant inhibitor of 53BP1 (Canny et al.), SEQ ID NO: 1
dose dependence of HDR benefit ([1]; FIG. 4): large performance increase going from 100 μM to 200 μM
benefit to HDR as a function of dose [3]: decrease in benefit at 200 μM
optimal concentration for HDR benefit [3]: 100 to 150 µM
rates of HDR [4]: improve the rates of HDR
formation of ionizing radiation induced 53BP1 foci [5]: inhibited the formation ionizing radiation induced 53BP1 foci
